Assay results taken from paper PMC11148772, “Inhibition of protein translational machinery in triple-negative breast cancer as a promising therapeutic strategy” (Cell Reports Medicine, 2024).
Residues, ends and D or L forms follow the SMILES beside them. *: point of attachment. Cbz = O=C(OCc1ccccc1)*

Tests used:
[1] = tested on: TNBC cells (MDA-MB-231, MDA-MB-468, SUM159); experiment: Immunoblot assay of cell lysates; type: cell-based, human; conditions: MG132 10 μM + SU056 1 μM, 15 h, MDA-MB-231 and MDA-MB-468
YB-1 [2] = biological target: T1, YB-1 (Homo sapiens, UniProt P67809); experiment: Pulldown assay with biotinylated SU056, MDA-MB-468; type: binding; parameters: endogenous in cells; conditions: 2 μM, 2 h
Protocol: (§1) Protein pulldown assay was performed using biotinylated SU056. MDA-MB-231 and MDA-MB-468 cells were treated with 2 μM biotinylated SU056 for 2 h. After 2 h of treatment, cells were collected and lysed using M-PER lysis solution (Thermo Scientific, #78503), supplemented with Halt protease and phosphatase inhibitor cocktail (Thermo Scientific, #78440). Protein lysate from Biotinylated SU056 treated cells were treated with RNase (10 μg/mL) for 15 min at 37°C. 600 μg protein was incubated with magnetic conjugate streptavidin bead (CST, #5947) at room temperature on rocker for 30 min. Biotin-streptavidin conjugates were pulled down and washed using a magnetic rack. After three washes, beads were resuspended in 2X SDS sample buffer followed by heating at 90°C–100°C for 5 min. Samples were resolved and probed with anti-YB-1 and anti-RPL11 antibodies as described in immunoblotting. Samples of protein lysates from MDA-MB-231 and MDA-MB-468 without biotinylated SU056 (input), samples from pulldown using only biotin and only streptavidin beads were used as experimental controls.

YB-1 [3] = biological target: T1, YB-1; experiment: Pulldown assay with biotinylated SU056, MDA-MB-231; type: binding; parameters: endogenous in cells; host or cells: MDA-MB-231; conditions: 2 μM, 2 h
Protocol: as §1

| SMILES | effect on SU056-induced decrease in levels of YB-1 and RPL11 [1] | interaction with YB-1 (pull-down) (YB-1 [2]) | increase of interaction with YB-1 in RNase-treated protein lysates (YB-1 [2]; RNase 10 μg/mL) [fold] | interaction with YB-1 (pull-down) (YB-1 [3]) | increase of interaction with YB-1 in RNase-treated protein lysates (YB-1 [3]; RNase 10 μg/mL) [fold] |
| --- | --- | --- | --- | --- | --- |
| CC(C)C[C@@H](C=O)NC(=O)[C@H](CC(C)C)NC(=O)[C@H](CC(C)C)NC(=O)OCc1ccccc1 [MG132, reference compound] (Cbz-Leu-Leu-Leu-aldehyde) | partially reversed |  |  |  |  |
| O=C(CCCC[C@@H]1SC[C@@H]2NC(=O)N[C@@H]21)NCCSSCCC(=O)OCCN1C2=C(C(=O)OC2)C(c2cccc(F)c2)c2cc3c(cc21)OCO3 (stereo partly drawn) [biotinylated SU056, 2-(9-(3-fluorophenyl)-8-oxo-6,9-dihydro-[1,3]dioxolo[4,5-g]furo[3,4-b]quinolin-5(8H)-yl)ethyl 3-((2-(5-((3aS,4S,6aR)-2-oxohexahydro-1H-thieno[3,4-day]imidazol-4-yl)pentanamido)ethyl)disulfaneyl)propanoate] |  | physically interacts | 18.76 | physically interacts | 3.13 |
